According to patent publication US20090181991A1, “COMPOUNDS AND COMPOSITIONS AS PROTEIN KINASE INHIBITORS” (IRM LLC, priority 2005, published 2009):

Tests used:
Experiment in all cases: Upstate KinaseProfiler radio-enzymatic filter binding assay
Assay type in all cases: biochemical
Conditions in all cases: 10 μM compound, remaining activity
Lck = target: T1, Lck (Homo sapiens, UniProt P06239)
T1 construct: purchased Upstate
Description: (§1) Percentage inhibition is calculated for each reaction.

Flt3 = target: T2, Flt3 (Homo sapiens, UniProt P36888)
T2 construct: purchased Upstate
T2 sequence (P36888 27-993): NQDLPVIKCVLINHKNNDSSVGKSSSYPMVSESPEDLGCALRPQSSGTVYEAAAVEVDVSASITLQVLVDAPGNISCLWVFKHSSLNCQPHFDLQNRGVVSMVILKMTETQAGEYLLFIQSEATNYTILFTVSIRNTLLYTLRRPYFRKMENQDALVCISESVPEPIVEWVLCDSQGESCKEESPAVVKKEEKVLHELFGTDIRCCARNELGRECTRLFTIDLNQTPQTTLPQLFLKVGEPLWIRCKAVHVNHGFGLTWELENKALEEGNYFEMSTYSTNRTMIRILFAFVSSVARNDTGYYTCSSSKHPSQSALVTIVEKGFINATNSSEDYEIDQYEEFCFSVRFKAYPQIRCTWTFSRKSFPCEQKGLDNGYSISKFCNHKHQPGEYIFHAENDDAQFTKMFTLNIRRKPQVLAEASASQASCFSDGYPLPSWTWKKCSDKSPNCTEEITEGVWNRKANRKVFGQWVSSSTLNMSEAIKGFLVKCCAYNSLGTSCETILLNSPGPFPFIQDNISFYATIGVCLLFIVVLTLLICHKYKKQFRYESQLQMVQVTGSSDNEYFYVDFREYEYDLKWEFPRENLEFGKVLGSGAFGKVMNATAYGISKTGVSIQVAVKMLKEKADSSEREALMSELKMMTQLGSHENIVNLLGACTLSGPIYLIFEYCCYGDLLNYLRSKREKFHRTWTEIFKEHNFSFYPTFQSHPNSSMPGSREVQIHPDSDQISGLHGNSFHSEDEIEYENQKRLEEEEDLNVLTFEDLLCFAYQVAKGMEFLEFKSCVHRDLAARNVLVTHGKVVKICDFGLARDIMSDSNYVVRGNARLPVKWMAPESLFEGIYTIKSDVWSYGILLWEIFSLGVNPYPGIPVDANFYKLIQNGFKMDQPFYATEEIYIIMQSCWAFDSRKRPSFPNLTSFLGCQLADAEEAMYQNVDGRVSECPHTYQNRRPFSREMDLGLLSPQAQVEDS
Description: as §1

Bmx = target: T3, Bmx (Homo sapiens, UniProt P51813)
T3 construct: purchased Upstate
T3 sequence (P51813 1-675): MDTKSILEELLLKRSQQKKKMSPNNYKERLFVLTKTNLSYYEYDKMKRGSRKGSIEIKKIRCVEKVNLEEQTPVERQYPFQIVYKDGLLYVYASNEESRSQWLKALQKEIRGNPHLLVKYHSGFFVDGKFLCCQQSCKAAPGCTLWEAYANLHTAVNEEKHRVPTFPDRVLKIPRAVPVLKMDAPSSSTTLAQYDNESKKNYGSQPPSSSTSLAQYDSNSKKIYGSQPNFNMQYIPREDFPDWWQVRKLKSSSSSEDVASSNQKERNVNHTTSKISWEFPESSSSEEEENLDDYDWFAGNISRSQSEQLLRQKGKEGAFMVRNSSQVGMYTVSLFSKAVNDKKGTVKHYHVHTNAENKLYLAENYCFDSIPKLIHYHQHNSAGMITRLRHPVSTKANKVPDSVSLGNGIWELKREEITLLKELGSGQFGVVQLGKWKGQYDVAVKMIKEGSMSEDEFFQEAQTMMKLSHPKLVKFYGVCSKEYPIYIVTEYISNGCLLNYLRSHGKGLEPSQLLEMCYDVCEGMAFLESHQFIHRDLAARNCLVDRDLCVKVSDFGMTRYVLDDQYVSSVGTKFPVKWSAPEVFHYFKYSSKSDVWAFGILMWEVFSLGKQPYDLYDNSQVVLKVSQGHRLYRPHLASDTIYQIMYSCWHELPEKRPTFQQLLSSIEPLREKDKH
Description: as §1

SAPK2a = target: T4, SAPK2a (Homo sapiens, UniProt Q16539)
T4 construct: purchased Upstate
Description: as §1

Measured: kinase activity

T1 sequence (P06239 whole entry): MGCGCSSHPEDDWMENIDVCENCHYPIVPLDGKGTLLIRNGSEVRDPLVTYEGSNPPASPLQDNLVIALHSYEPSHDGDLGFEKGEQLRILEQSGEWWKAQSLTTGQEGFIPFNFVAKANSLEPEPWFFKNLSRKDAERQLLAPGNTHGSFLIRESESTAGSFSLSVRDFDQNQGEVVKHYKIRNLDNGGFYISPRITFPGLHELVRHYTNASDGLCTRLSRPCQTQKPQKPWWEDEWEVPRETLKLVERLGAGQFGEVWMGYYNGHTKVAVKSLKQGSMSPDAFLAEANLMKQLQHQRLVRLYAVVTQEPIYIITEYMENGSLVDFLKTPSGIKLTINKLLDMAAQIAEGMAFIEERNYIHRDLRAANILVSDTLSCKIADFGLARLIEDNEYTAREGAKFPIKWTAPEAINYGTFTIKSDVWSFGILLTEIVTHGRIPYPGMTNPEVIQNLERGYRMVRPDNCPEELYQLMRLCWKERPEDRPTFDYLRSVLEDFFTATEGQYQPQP
T4 sequence (Q16539 whole entry): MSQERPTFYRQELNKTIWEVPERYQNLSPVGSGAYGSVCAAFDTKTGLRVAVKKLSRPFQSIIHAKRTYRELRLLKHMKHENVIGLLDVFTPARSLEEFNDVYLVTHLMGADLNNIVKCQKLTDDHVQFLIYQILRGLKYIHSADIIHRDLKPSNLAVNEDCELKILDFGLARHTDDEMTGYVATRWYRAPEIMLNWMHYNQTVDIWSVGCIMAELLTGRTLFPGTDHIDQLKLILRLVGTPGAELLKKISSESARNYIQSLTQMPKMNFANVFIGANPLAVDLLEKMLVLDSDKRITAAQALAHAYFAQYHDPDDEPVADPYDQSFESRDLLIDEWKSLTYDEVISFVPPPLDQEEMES

O=C(Nc1cccc(Nc2cc(Nc3cccc(C(F)(F)F)c3)ncn2)c1)C1CC1 [Example 1, Cyclopropanecarboxylic acid {3-[6-(3-trifluoromethyl-phenylamino)-pyrimidin-4-ylamino]-phenyl}-amide]
less than 50%: all assays above
